Laboratory results taken from ChEMBL document CHEMBL1201862, “PubChem BioAssay data set” (2004).
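How tested: cells in 96-well plates exposed to compound for 48 hours at five concentrations. The concentration for 50% growth inhibition is given as GI50.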 Activity calls are given as the source filed them. Rule as the data show it: active = GI50 up to about 1.1 µM and inactive = higher.

Key:
Experiment in all cases: DTP human tumour cell line panel, 48 h
786-0 = tested on: 786-0
CAKI-1 = tested on: CAKI-1
HCT-116 = tested on: HCT-116
HOP-62 = tested on: HOP-62
Hs-578T = tested on: Hs-578T
IGROV-1 = tested on: IGROV-1
LOX IMVI = tested on: LOX IMVI
M14 = tested on: M14
MDA-MB-435 = tested on: MDA-MB-435
Malme-3M = tested on: Malme-3M
NCI-H226 = tested on: NCI-H226
NCI-H23 = tested on: NCI-H23
NCI-H522 = tested on: NCI-H522
OVCAR-4 = tested on: OVCAR-4
SF-295 = tested on: SF-295
SN12C = tested on: SN12C
SW-620 = tested on: SW-620
T47D = tested on: T47D
UACC-62 = tested on: UACC-62
UO-31 = tested on: UO-31

SMILES | GI50 (786-0) | GI50 (CAKI-1) | GI50 (HCT-116) | GI50 (HOP-62) | GI50 (Hs-578T) | GI50 (IGROV-1) | GI50 (LOX IMVI) | GI50 (M14) | GI50 (MDA-MB-435) | GI50 (Malme-3M) | GI50 (NCI-H226) | GI50 (NCI-H23) | GI50 (NCI-H522) | GI50 (OVCAR-4) | GI50 (SF-295) | GI50 (SN12C) | GI50 (SW-620) | GI50 (T47D) | GI50 (UACC-62) | GI50 (UO-31)
CN(C)S(=O)(=O)c1nc(Cl)c2nc[nH]c2n1 | > 100 µM (inactive) | > 100 µM (inactive) | > 100 µM (inactive) | > 100 µM (inactive) | > 100 µM (inactive) | > 100 µM (inactive) | > 100 µM (inactive) | > 100 µM (inactive) | > 100 µM (inactive) | > 100 µM (inactive) | > 100 µM (inactive) | > 100 µM (inactive) | > 100 µM (inactive) | > 100 µM (inactive) | > 100 µM (inactive) | > 100 µM (inactive) | > 100 µM (inactive) | > 100 µM (inactive) | > 100 µM (inactive) | > 100 µM (inactive)
O=P1(C(O)/C=C/c2ccccc2)N(Cc2ccccc2)[C@H](c2ccccc2)[C@@H](c2ccccc2)N1Cc1ccccc1 (stereo not given in full) | 23.7 µM (inactive) | 17.1 µM (inactive) | 8.15 µM (inactive) | 29.8 µM (inactive) | 26.2 µM (inactive) | 2.24 µM (inactive) | 17.5 µM (inactive) | 14.4 µM (inactive) | 19.3 µM (inactive) | 27.8 µM (inactive) | 36.6 µM (inactive) | 13.1 µM (inactive) | 4.9 µM (inactive) | 13 µM (inactive) | 14 µM (inactive) | 13.6 µM (inactive) | 26.1 µM (inactive) | 7.13 µM (inactive) | 11 µM (inactive) | 12.5 µM (inactive)
CCCC(=O)OC1CC(n2cc(F)c(=O)[nH]c2=O)OC1CO (stereo not given) | 0.342 µM (active) | 0.141 µM (active) | 0.731 µM (active) | 0.0583 µM (active) | > 3.19 µM (inactive) | > 5.89 µM (inactive) | 0.0149 µM (active) | 0.33 µM (active) | 2.79 µM (inactive) | > 8.79 µM (inactive) | > 10 µM (inactive) | 0.0682 µM (active) | 6.34 µM (inactive) | > 10 µM (inactive) | 0.148 µM (active) | 0.317 µM (active) | > 10 µM (inactive) | > 10 µM (inactive) | 0.0863 µM (active) | 0.362 µM (active)
